Assay results: patent US10888087B2, “Lactam solubility” (Conopco, Inc., priority 2015, dated 2021)

Assay: Screening of NIS: lactam solubility in water or water + non-ionic surfactant additive, quantified by HPLC
Assay type: physicochemical
Parameters: key to Solubility Increase vs water alone: fold: lactam dissolved in water+additive / lactam dissolved in water
Details: for Mean Lactam Level in Solution (ppm): 48 hours agitation
Procedure: The following representative example uses 4-(4-chlorophenyl)-5-methylene-pyrrol-2-one.
Excess solid lactam (˜3 mg) was placed in a Whatman® Mini Uniprep sample vial, fitted with a 0.45 um nylon filter. Water or water+additive (NIS) (500 μL) was added the mixture shaken and tapped briefly to initially disperse the solid and the mixture then agitated for 48 hours using a plate shaker fitted with a vial holder. After 48 hours, the solid was removed from the system by pressing down the plunger with integral filter on the vial. This removes the solid and provides filtered solution within the inner chamber which is then ready for analysis.
The level of lactam dissolved in solution was quantified using HPLC analysis. Samples were analysed on an Agilent 1200® series HPLC fitted with a Thermo Hypersil Gold® C18 column (15×2.1×3 μm), isocratic elution with 60/40 methanol/water (+0.1% Formic Acid), 0.4 mL/min flow rate, using a DAD detector at 285 nm. The lactam tested has a retention time of ˜2.8 minutes.
For each additive, the absolute level of lactam in solution was measured and reported as an increase in solubility of lactam relative to water alone.
Each test surfactant solution was tested in triplicate and the mean value of lactam in solution calculated. Values of solubility were quoted as the improvement in aqueous solubility vs water alone (i.e. mean level of lactam dissolved in water+solvent/mean level of lactam dissolved in water) to allow comparison between screens conducted on different days.

[1] = Neodol 25-7, 0% additive in water
[2] = Neodol 25-7, 0.5% additive in water
[3] = Neodol 25-7, 1% additive in water
[4] = Neodol 25-7, 2% additive in water
[5] = Neodol 25-7, 5% additive in water
[6] = Neodol 25-7, 10% additive in water
[7] = Neodol 25-7, 20% additive in water
[8] = Tween 20, 0.5% additive in water
[9] = Tween 20, 10% additive in water
[10] = Tween 20, 20% additive in water
[11] = Tween 80, 0.5% additive in water
[12] = Tween 80, 10% additive in water

C=C1NC(=O)C=C1c1ccc(Cl)cc1 [Ref. 488, 4-(4-chlorophenyl)-5-methylene-pyrrol-2-one]
Solubility Increase vs water alone [1]: 1.0
Mean Lactam Level in Solution (ppm) [1]: 2.4 ppm
Solubility Increase vs water alone [2]: 48.3
Mean Lactam Level in Solution (ppm) [2]: 116.0 ppm
Solubility Increase vs water alone [3]: 84.7
Mean Lactam Level in Solution (ppm) [3]: 203.2 ppm
Solubility Increase vs water alone [4]: 162.7
Mean Lactam Level in Solution (ppm) [4]: 390.4 ppm
Solubility Increase vs water alone [5]: 251.4
Mean Lactam Level in Solution (ppm) [5]: 603.3 ppm
Solubility Increase vs water alone [6]: 255.2
Mean Lactam Level in Solution (ppm) [6]: 612.5 ppm
Solubility Increase vs water alone [7]: 189.8
Mean Lactam Level in Solution (ppm) [7]: 455.6 ppm
Solubility Increase vs water alone (Tween 20, 0% additive in water): 1.0
Mean Lactam Level in Solution (ppm) (Tween 20, 0% additive in water): 1.7 ppm
Solubility Increase vs water alone [8]: 36.9
Mean Lactam Level in Solution (ppm) [8]: 61.6 ppm
Solubility Increase vs water alone (Tween 20, 1% additive in water): 70.9
Mean Lactam Level in Solution (ppm) (Tween 20, 1% additive in water): 118.3 ppm
Solubility Increase vs water alone (Tween 20, 2% additive in water): 135.8
Mean Lactam Level in Solution (ppm) (Tween 20, 2% additive in water): 226.5 ppm
Solubility Increase vs water alone (Tween 20, 5% additive in water): 310.7
Mean Lactam Level in Solution (ppm) (Tween 20, 5% additive in water): 518.3 ppm
Solubility Increase vs water alone [9]: 497.3
Mean Lactam Level in Solution (ppm) [9]: 829.6 ppm
Solubility Increase vs water alone [10]: 927.0
Mean Lactam Level in Solution (ppm) [10]: 1546.3 ppm
Solubility Increase vs water alone (Tween 80, 0% additive in water): 1.00
Mean Lactam Level in Solution (ppm) (Tween 80, 0% additive in water): 6.0 ppm
Solubility Increase vs water alone [11]: 6.92
Mean Lactam Level in Solution (ppm) [11]: 41.5 ppm
Solubility Increase vs water alone (Tween 80, 1% additive in water): 12.51
Mean Lactam Level in Solution (ppm) (Tween 80, 1% additive in water): 75.0 ppm
Solubility Increase vs water alone (Tween 80, 2% additive in water): 20.56
Mean Lactam Level in Solution (ppm) (Tween 80, 2% additive in water): 123.3 ppm
Solubility Increase vs water alone (Tween 80, 5% additive in water): 34.74
Mean Lactam Level in Solution (ppm) (Tween 80, 5% additive in water): 208.4 ppm
Solubility Increase vs water alone [12]: 65.23
Mean Lactam Level in Solution (ppm) [12]: 391.4 ppm
